Values belong to the molecule of their own block, whether it stands above or below them.
Assays:
Fluc mRNA [1] = experiment: In vivo delivery of luciferase mRNA (Fluc mRNA) by lipid nanoparticles, living imaging; parameters: species or system BALB/c mice; conditions: after 12 hours, total fluorescence
Procedure: (§1) The amino lipid compounds of the present disclosure were mixed with DOPE, cholesterol, and PEG2000-DMG in a molar ratio of 45:10:42.5:2.5 and dissolved in absolute ethanol. By using a microinjection pump, the resultant ethanol solution and a sodium acetate solution (50 mM, pH=4.0) were mixed in a ratio of 1:3 in a microfluidic chip to prepare a crude solution of lipid nanoparticles, which were then dialyzed in 1×PBS at a controlled temperature of 4° C. for 6 h using a dialysis box (Fisher, MWCO 20,000), and filtered through a 0.22 μm microporous filter membrane before use.
(§2) The formulation method was the same as the formulation method 1, except that the molar ratio of the amino lipid compounds to DSPC, cholesterol and PEG2000-DMG was 50:10:38.5:1.5.
The lipid nanoparticles prepared according to the above formulation method 1 or 2 were used in the biological experiments below for evaluating the performances of in vivo delivery of luciferase mRNA (Fluc mRNA). For the lipid nanoparticles obtained in the formulation method 1, the mass ratio of the amino lipid compounds to the luciferase mRNA was about 10:1, and the lipid nanoparticles were administered subcutaneously; and the lipid nanoparticles obtained in the formulation method 2 were administered by tail vein and intramuscular injection.
6-week-old female BALB/c mice weighed about 20 g were selected and fed in a SPF-grade feeding room. Animal tests were conducted strictly according to the guidelines of National Health institutions and the requirements of animal ethics.
(§3) 9 mice were assigned randomly to each group and injected with the lipid nanoparticles at a dosage of 0.5 mg/kg by three administration routes, i.e., subcutaneous, intramuscular and tail vein injection (three mice for each administration route). After 12 hours, D-luciferin potassium salt (200 μL, 10 mg/mL) was injected into each mouse through the tail vein. After 10 minutes, the total fluorescence intensity of each mouse was observed on a living imaging system (IVIS-200, Xenogen) and taken photographs for record. The expression intensities of Fluc mRNA delivered by representative amino lipid compounds through the three administration routes are shown in Table 2-4. MC3 was used as a control and SM102 was used as a comparative compound.

Fluc mRNA [2] = experiment: Activity of lipid nanoparticles of formulation method 2, Fluc mRNA by intramuscular administration; assay type: in vivo, BALB/c mice
Procedure: as §2, §3
Preparation of Lipid Nanoparticles: LNPs were Prepared Using the Formulation Method 2 for Intramuscular Administration.
The measurement method was the same as that of Test Example 1.

[3] = Stability of lipid nanoparticles at 25° C., DLS particle size and PDI; assay type: physicochemical; conditions: for particle size: preparation day (week 0)
Procedure: as §1
(§4) Preparation of Lipid Nanoparticles: The Formulation Method 1 was Used to Prepare LNPs for Subcutaneous Administration.
Characterization of lipid nanoparticles: The particle size and PDI of the prepared lipid nanoparticles were measured by Nano-ZSZEN 3600 (Malvern). 40 μL of the LNP solution was taken for particle size measurement with circulation for three times, 30 seconds for each circulation.
(§5) The particle size measurements were carried out on the day of preparation (week 0), and after one week (week 1), two weeks (week 2), and four weeks (week 4) of storage at 25° C., and the expression intensities of Fluc mRNA delivered by subcutaneous administration were determined on the day of preparation (week 0) and after four weeks (week 4).

Fluc mRNA [4] = experiment: Stability of lipid nanoparticles at 25° C., subcutaneous expression of Fluc mRNA; assay type: in vivo, mice; conditions: for Fluc expression change after four weeks: 25° C., week 4 versus week 0
Procedure: as §1, §3, §4, §5

liver = experiment: Targeting assay, fluorescence in liver after intramuscular injection; assay type: in vivo, mice; conditions: 15 μg mRNA per animal, 6 h after injection, dissected liver
Procedure: The lipids were mixed with DSPC, CHO-HP, M-DMG2000 (i.e. PEG2000-DMG) in a molar ratio of 50:10:38.5:1.5 and dissolved in absolute ethanol. mRNA was dissolved in a sodium acetate solution (0.2M, pH=5.0). The samples of various prescriptions were prepared at a water phase:alcohol phase=9 ml/min: 3 ml/min by using a microfluidic equipment (MPE-L2) and a chip (SN.000035). The two phases were mixed by injecting them into the microfluidic chip according to the interface requirements, and then the drug solution was loaded into a 100KD dialysis bags, immersed in a beaker containing 1 L dialysis solution and wrapped with aluminum foil, and dialyzed at 100 rpm for 1 h at room temperature, and then the dialysis solution was replaced and the dialysis continued for 1 h.
Formulation of dialysis solution: 1×PBS+8% sucrose solution: 2 packets of 1×PBS powder were taken into a beaker, dissolved with 2 L DEPC water, added with 160 g of sucrose additionally, and mixed to obtain the 1×PBS+8% sucrose solution.
The mass ratio of mRNA:Lipids in the obtained lipid nanoparticles were about 1:10.
Fluorescent protein-encoding mRNA-LNP preparations containing Compound (I-6-II), MC3 or SM102, respectively were prepared by using the formulation method of mRNA lipid nanoparticle (LNP) preparations as described above, selecting a fluorescent protein-encoding mRNA as the mRNA and the compound (I-6-II), MC3 or SM102, respectively as the lipid.
Each preparation to be tested was administered to mice by intramuscular injection, with each animal receiving 15 μg mRNA preparation sample. 6 h after sample injection, the mice were anesthetized by isoflurane inhalation, and injected intraperitoneally with 200 μL of D-Luciferin (concentration 10 mg/ml) luciferase development substrate. […] After development of living imaging of the intramuscularly injected animals, they were immediately dissected, followed by observation of the fluorescence in the liver immediately after the dissection.

[5] = intramuscular injection, formulation method 2, 0.5 mg/kg
[6] = tail vein administration, formulation method 2, 0.5 mg/kg
[7] = subcutaneous administration, formulation method 1, 0.5 mg/kg
[8] = week 0, subcutaneous administration
[9] = week 4, storage at 25° C., subcutaneous administration

Structure (SMILES): CCCCCCCCC(CCCCCC)OC(=O)CCCCCN(CCCCCC(=O)OC(CCCCCC)CCCCCCCC)C1CCCC(O)C1 (stereo not drawn) [Compound 8]
Fluorescence intensity (expression intensity of Fluc mRNA) (Fluc mRNA [1]; [5]): 9.2E + 06
Fluorescence intensity (expression intensity of Fluc mRNA) (Fluc mRNA [1]; [6]): 5.1E + 06
Fluorescence intensity (expression intensity of Fluc mRNA) (Fluc mRNA [2]): 9.2E + 06

particle size change after four weeks of storage ([3]; 25° C., week 4 versus week 0): did not increase significantly
particle size [3]: about 100 nm
Z-Average ([3]; week 0 (day of preparation)): 115 nm·days
PDI ([3]; week 1, storage at 25° C.): 0.03
Z-Average ([3]; week 1, storage at 25° C.): 120 nm·days
PDI ([3]; week 2, storage at 25° C.): 0.06
Z-Average ([3]; week 2, storage at 25° C.): 125 nm·days
Z-Average ([3]; week 4, storage at 25° C.): 125 nm·days
Structure (SMILES): CCCCCCCCCOC(=O)CCCCCCCN(CCCCCCOC(=O)C(CCCCCC)CCCCCCCC)C1CCCC(O)C1 (stereo not drawn) [Compound 9]
Fluorescence intensity (expression intensity of Fluc mRNA) (Fluc mRNA [1]; [5]): 3.7E + 07
Fluorescence intensity (expression intensity of Fluc mRNA) (Fluc mRNA [1]; [7]): 4.2E + 07
Fluc expression change after four weeks (Fluc mRNA [4]): did not decrease significantly
Fluc Expression intensities (Fluc mRNA [4]; [8]): 4.2E+07
Fluc Expression intensities (Fluc mRNA [4]; [9]): 3.1E+07

Structure (SMILES): CCCCC/C=C\C/C=C\CCCCCCCCOC(=O)CCCCCCCN(CCCCCCOC(=O)C(CCCCCC)CCCCCCCC)C1CCCC(O)C1 (stereo not drawn) [Compound 12]
Fluorescence intensity (expression intensity of Fluc mRNA) (Fluc mRNA [1]; [7]): 4.2E + 06
Fluorescence intensity (expression intensity of Fluc mRNA) (Fluc mRNA [1]; [6]): 6.2E + 06

Structure (SMILES): CCCCCCCCC(CCCCCC)C(=O)OCCCCCCN(CCCCCCOC(=O)C(CCCCCC)CCCCCCCC)C1CCCC(O)C1 (stereo not drawn) [Compound 14]
Fluorescence intensity (expression intensity of Fluc mRNA) (Fluc mRNA [1]; [5]): 8.2E + 06
Fluorescence intensity (expression intensity of Fluc mRNA) (Fluc mRNA [1]; [6]): 4.1E + 06

Structure (SMILES): CCCCCCCCC(CCCCCC)OC(=O)CCCCCN(CCCCCCOC(=O)C(CCCCCC)CCCCCCCC)C1CCCC(O)C1 (stereo not drawn) [Compound 15]
Fluorescence intensity (expression intensity of Fluc mRNA) (Fluc mRNA [1]; [5]): 1.8E + 07
Fluorescence intensity (expression intensity of Fluc mRNA) (Fluc mRNA [1]; [7]): 4.7E + 07
Fluorescence intensity (expression intensity of Fluc mRNA) (Fluc mRNA [1]; [6]): 3.5E + 06

Structure (SMILES): CCCCCCCCCOC(=O)CCCCCCCN(CCCCCCCC(=O)OC(CCCCCCCC)CCCCCCCC)C1CCCC(OC)C1 (stereo not drawn) [Compound 16]
Fluorescence intensity (expression intensity of Fluc mRNA) (Fluc mRNA [1]; [7]): 1.3E + 06

Structure (SMILES): CCCCCCCCCCCOC(=O)CCCCCCCN(CCCCCCCC(=O)OC(CCCCCCCC)CCCCCCCC)C1CCCC(C#N)C1 (stereo not drawn) [Compound 17]
Fluorescence intensity (expression intensity of Fluc mRNA) (Fluc mRNA [1]; [5]): 6.2E + 06

Structure (SMILES): CCCCCCCCCOC(=O)CCCCCCCN(CCCCCCCC(=O)OC(CCCCCCCC)CCCCCCCC)C1CCCC(F)C1 (stereo not drawn) [Compound 18]
Fluorescence intensity (expression intensity of Fluc mRNA) (Fluc mRNA [1]; [5]): 7.8E + 06

Structure (SMILES): CCCCCCCCCOC(=O)CCCCCCCN(CCCCCCCC(=O)OC(CCCCCCCC)CCCCCCCC)C1CCCC(C(=O)NCCCC)C1 (stereo not drawn) [Compound 21]
Fluorescence intensity (expression intensity of Fluc mRNA) (Fluc mRNA [1]; [7]): 1.1E + 06

particle size [3]: about 100 nm
Z-Average ([3]; week 0 (day of preparation)): 120 nm·days
PDI ([3]; week 1, storage at 25° C.): 0.16
Z-Average ([3]; week 1, storage at 25° C.): 145 nm·days
PDI ([3]; week 2, storage at 25° C.): 0.21
Z-Average ([3]; week 2, storage at 25° C.): 195 nm·days
PDI ([3]; week 4, storage at 25° C.): 0.28
Z-Average ([3]; week 4, storage at 25° C.): 245 nm·days
Structure (SMILES): CCCCCCCCCOC(=O)CCCCCCCN(CCO)CCCCCCCC(=O)OC(CCCCCCCC)CCCCCCCC [SM102, reference compound]
Fluorescence intensity (expression intensity of Fluc mRNA) (Fluc mRNA [1]; [5]): 4.6E + 07
Fluorescence intensity (expression intensity of Fluc mRNA) (Fluc mRNA [1]; [7]): 2.4E + 07
Fluorescence intensity (expression intensity of Fluc mRNA) (Fluc mRNA [1]; [6]): 7.4E + 06
Fluc expression change after four weeks (Fluc mRNA [4]): decreased significantly
Fluc Expression intensities (Fluc mRNA [4]; [8]): 2.4E+07
Fluc Expression intensities (Fluc mRNA [4]; [9]): 3.6E+06
fluorescence intensity in liver (liver): 3.23E+06

Reference: patent US20260015311A1, “AMINO LIPID COMPOUND, PREPARATION METHOD THEREFOR, AND USE THEREOF” (SHENZHEN SHENXIN BIOTECHNOLOGY CO., LTD., priority 2022, published 2026)
